Experimental data as given in patent publication US7728146B2, “Enzyme inhibitors” (Probiodrug AG, priority 2006, dated 2010).

Tests used:
DP IV [1] = molecular target: T1, DP IV (Homo sapiens, UniProt P27487); assay: Ki and inhibition type, DP IV; format: biochemical; details: compounds obtained by preparative synthesis
Procedure: Measurement of DP IV activities for Ki determination is carried out as described for IC50. For Ki determination samples were analysed in triplicates. 7 serial dilutions of the inhibitor (range calculated from the IC50 determination) in water are analyzed with 4 serial dilutions of the substrate.
Data are analysed by non-linear regression to the inhibitor equations using Graphit software. Ki-value and inhibition type are determined using the inhibitor equation (competitive, partiell competitive, non-competitive) which gives the best fitting results. […]

[2] = tested on: neuroblastoma cell line SY5Y; assay: LD50 determination on SY5Y (LDH); format: cell-based; details: 8 serial dilutions, highest concentration 1 mM
Procedure: After 24 h of cultivation in a 96 well plate (50 000 cells/well) compounds (dissolved in DMSO) are added and cytotoxicity and vitality of the cells are analysed after another 24 h of cultivation using the CytoTox-One Homogenoeous membrane toxicity assay (Promega).
For cytotoxicity the LDH activity in the cell culture media after 24 h of incubation are analysed. The untreated control is set to 0% cytotoxicity. For the 100% value LDH activity of lysed untreated cells are analysed.
For viability cell culture media are removed from the cells and all cells are lysed using the lysis buffer. LDH activity is determined and untreated control is set to 100% viability.
For determination of LD50 the liver carcinoma cell line HEP-G2 and the neuroblastoma cell line SY5Y may be used. The effect of 8 serial dilutions of the compounds (highest concentration 1 mM) is investigated as described above.

DPII = DPII (Homo sapiens, UniProt Q9UHL4); assay: DPII assay; format: biochemical; details: for Selectivity DPII(IC50)/DPIV(Ki): ratio IC50 DPII / Ki DP IV; for IC50: sodium acetate buffer pH 5.5, Gly-Pro-AMC 1 mM
Procedure: (§1) Determination of IC50 values for DPII and DP9 are done similarly as described for DP IV.
For DPII instead of the HEPES buffer a 0.2 M sodium acetate buffer pH 5.5 is used. As substrate Gly-Pro-AMC is used in a final concentration of 1 mM.

[3] = tested on: liver cell carcinoma cell line Hep-G2; assay: Cytotoxicity screening and LD50 determination on Hep-G2 (LDH, CytoTox-One); format: cell-based; details: for LD50 Viability HEP-G2 / LD50 cytotox HEP-G2: 8 serial dilutions, highest concentration 1 mM; for Cytotox 100 μM (%) HEPG2 / Viability 100 μM (%) HEP-G2: 24 h; for Cytotox 100 μM (%) HEPG2: LDH activity in cell culture media, lysed untreated cells = 100%; for Viability 100 μM (%) HEP-G2: LDH of lysed cells, untreated control = 100%; for Cytotox 100 μM (%) HEPG2 / Viability 100 μM (%) HEP-G2 / Observed cytotox: 100 μM; for Observed cytotox: Hep-G2, observation of the cells
Procedure, shortened: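 Hep-G2 cells (50 000/well) precultured 24 h, then compound in DMSO (final 1%) added for 24 h. Screen at 100 μM, 2 μM, 40 nM in triplicate. LDH in medium gave cytotoxicity (untreated 0%, lysed 100%); LDH of lysed cells gave viability. LD50 from 8 serial dilutions, top 1 mM.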

Caco-2 monolayer = assay: Caco-2 transport assay; format: in vitro ADME, human; details: assessment of permeability and transport type
Procedure: (§2) The concentration of compounds in the Caco experiments may be determined from their potency to inhibit recombinant human DP IV.
(§3) Reaction is started by addition of 20 μl rhDP IV and release of pNA was monitored at 405 nm. Samples are analyzed in several dilutions (undiluted, 1:10, 1:[…]). Dilutions are done in the Caco assay buffer. Activity measured with Caco-assay buffer alone is set to 100% and inhibitor concentration is calculated from the dilutions resulting in 20 to 80% inhibition according to the equation for competitive inhibition.
(§4) [formula] • I=inhibitor concentration • v0=velocity of the reaction without inhibitor (Caco assay buffer alone) • vi=velocity of the reaction with inhibitor sample • Ki=Ki-value of the compound • DF=dilution factor of the sample Transport Assay
(§5) The human colon adenocarcinome cell line Caco-2 are grown in 6- or 24-transwell microplates (Costar) for 21 days with MEM-alpha containing 10% FBS and 0.5% Gentamycin (Invitrogen). After 21 days of cultivation integrity of the cell layer are assessed by measurement of the transepitelial electrical resistance.
(§6) Transport measurements are carried out in triplicates at a pH of 7.5. For each compound and direction (apical to basal (a-b), basal to apical (b-a)) two separate experiments are done. Samples are collected from the donor and acceptor compartments at the beginning of the experiment and after 60 min (for 6-well plates, Donor at 0 and 120 min, Acceptor at 15, 30, 60 and 120 min).
(§7) Samples are analyzed in several dilutions for their ability to inhibit human recombinant DP IV and compound concentrations may be calculated using the prior determined Ki-value (see above).
(§8) The permeability coefficient Papp is calculated according to the following equation:
(§9) [formula] • VA=Volume of the acceptor compartment • A=Area of the transwell membrane • t=sampling time • cAt=concentration in the acceptor compartment at sampling time • CDO=concentration in the donor compartment at t=0
(§10) Papp-values>1e-5 cm/s are assessed as good permeable, value<1e-6 cm/s as not permeable. Papp-values in between as medium permeable. Compounds where no significant difference were found between a-b and b-a transport are assessed to be passive transported.

Caco-2 transport assay = format: in vitro ADME, human; details: human, Caco-2, pH 7.5; for Papp A→B: apical to basal; for Papp B→A: basal to apical
Procedure: as §2, §3, §4, §5, §6, §7, §8, §9, §10

DP IV [4] = molecular target: T1, DP IV; assay: DP IV inhibition IC50, parallel-synthesis compounds tested directly following synthesis (without purification); format: biochemical; design: IC50 DP4; other: tested directly following parallel synthesis, without purification; compounds of formula (Ib) from parallel synthesis, tested directly following synthesis; details: DP IV inhibition; compounds of formula (Ib) from parallel synthesis, tested directly following synthesis (without purification); read-out: IC50
Procedure, shortened: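 Porcine kidney or recombinant human enzyme (~40-50 μU/ml, HEPES buffer) hydrolysing Gly-Pro-pNA at room temperature, with 5% DMSO final; 11-point 1:2 dilutions from 100 μM final, in duplicate. pNA release read at 405 nm over ~18 min; slopes vs solvent control give residual activity, and IC50 comes from a 4-parameter fit.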

[5] = molecular target: dipeptidyl peptidase (DP IV) (UniProt P27487); assay: Determination of IC50 against DP IV (hydrolysis of Gly-Pro-pNA); format: biochemical, porcine kidney or recombinant human; details: compounds obtained by preparative synthesis
Procedure: Determination of IC50 Against DP IV
Substances are screened for inhibition of dipeptidyl peptidase (DP IV) by their ability to inhibit the hydrolysis of the DP IV specific substrate Glycyl-Prolyl-4-Nitroanilide (Gly-Pro-pNA). All compounds are diluted in DMSO and IC50 will be determined with 11 serial dilutions (1:2) starting with an final concentration of 100 μM. The final DMSO concentration in the assay is 5% (v/v). The method was automated using a Tecan Genesis Freedom liquid handler and a Genius Pro (Tecan) microplate reader.
A stock solution of 0.102 M HEPES is prepared. Ionic strength (I=0.32) is adjusted by KCl and pH (pH 7.6) by KOH.
2.16 mM solution of Gly-Pro-pNA in deionized water is prepared.
All samples are dissolved in DMSO preparing a 10 mM stock solution.
DP IV from porcine kidney (pDP IV) or recombinant human DP IV (rhDP IV) is diluted in HEPES buffer to a final activity of approximately 40-50 μU*ml^−1. The DP IV is stored in a cooling rack (4° C.) on the liquid handler.
The assay may becarried out at room temperature using Freedom liquid handler connected with a Genios Pro microplate reader. Each sample is measured in duplicate. Each sample stock solution is prediluted with DMSO in a ratio of 1:5 in a polypropylen 96-well plate. From this predilution 10 serial (1:2) dilutions in DMSO are prepared. 13.5 μl of the 11 DMSO dilutions and DMSO alone are transferred to the measurement microplate (duplicates) and 86.5 μl water, 100 μl HEPES buffer and 50 μl substrate solution are added to each well. The enzymatic reaction is started by addition of 20 μl enzyme solution to each well, and then the microplate is immediately transferred to the microplate reader.
After short mixing (20 s) the release of 4-Nitroanilin (pNA) is monitored at 405 nm for 30 cycles (approx. 18 min).
Post assay calculations are done by the Magellan (Tecan) and Graphit Software. The linear slopes are calculated for each well and averaged for the duplicates. The residue activities are calculated in relation to a sample containing only solvent instead of inhibitor and expressed in %. Residue activities are plotted against the log of inhibitor concentrations and IC50 is calculated by an 4-parameter fitting ranging from 0 to 100%.

DP9 = DP9 (Homo sapiens, UniProt Q86TI2); assay: DP9 assay; format: biochemical; details: for IC50: Gly Pro-AMC 0.25 mM; for Selectivity DP9(IC50)/DPIV(Ki): ratio IC50 DP9 / Ki DP IV
Procedure: as §1
For DP9 Gly Pro-AMC is used as substrate in a final concentration of 0.25 mM.

[6] = solubility (dosing solution in saline); format: physicochemical; details: compounds were dissolved in saline for dosing
Procedure: The animals were treated by a single oral dose of 3 mg/kg (5 mL/kg b.w.; treatment A) followed by a wash-out period of at least 3 days before intraarterial administration of 3 mg/kg (2 mL/kg b.w.; treatment B). The compounds were dissolved in saline to a final concentration adequate for an application of 3 mg/kg b.w.

T1 sequence (P27487 whole entry): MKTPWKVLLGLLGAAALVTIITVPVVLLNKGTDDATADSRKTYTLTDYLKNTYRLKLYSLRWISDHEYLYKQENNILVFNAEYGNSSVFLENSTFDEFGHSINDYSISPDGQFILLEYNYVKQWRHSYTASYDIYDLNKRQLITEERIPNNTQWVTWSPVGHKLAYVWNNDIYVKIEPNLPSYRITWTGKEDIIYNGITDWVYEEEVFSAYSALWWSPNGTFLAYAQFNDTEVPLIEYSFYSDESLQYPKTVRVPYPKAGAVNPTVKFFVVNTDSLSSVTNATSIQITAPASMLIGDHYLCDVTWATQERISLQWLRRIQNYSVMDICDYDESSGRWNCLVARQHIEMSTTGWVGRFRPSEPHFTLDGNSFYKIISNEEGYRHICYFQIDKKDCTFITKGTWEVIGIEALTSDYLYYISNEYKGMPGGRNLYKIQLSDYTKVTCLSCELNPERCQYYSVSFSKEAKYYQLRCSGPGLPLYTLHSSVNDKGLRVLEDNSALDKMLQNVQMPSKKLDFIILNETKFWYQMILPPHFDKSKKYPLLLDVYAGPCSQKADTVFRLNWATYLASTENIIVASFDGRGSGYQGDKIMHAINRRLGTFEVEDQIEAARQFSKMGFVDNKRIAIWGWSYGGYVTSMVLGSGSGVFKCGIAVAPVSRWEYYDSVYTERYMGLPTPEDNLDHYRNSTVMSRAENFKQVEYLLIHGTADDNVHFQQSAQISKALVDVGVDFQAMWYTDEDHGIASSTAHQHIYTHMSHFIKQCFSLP
DP9, sequence (Q86TI2 whole entry, species assumed): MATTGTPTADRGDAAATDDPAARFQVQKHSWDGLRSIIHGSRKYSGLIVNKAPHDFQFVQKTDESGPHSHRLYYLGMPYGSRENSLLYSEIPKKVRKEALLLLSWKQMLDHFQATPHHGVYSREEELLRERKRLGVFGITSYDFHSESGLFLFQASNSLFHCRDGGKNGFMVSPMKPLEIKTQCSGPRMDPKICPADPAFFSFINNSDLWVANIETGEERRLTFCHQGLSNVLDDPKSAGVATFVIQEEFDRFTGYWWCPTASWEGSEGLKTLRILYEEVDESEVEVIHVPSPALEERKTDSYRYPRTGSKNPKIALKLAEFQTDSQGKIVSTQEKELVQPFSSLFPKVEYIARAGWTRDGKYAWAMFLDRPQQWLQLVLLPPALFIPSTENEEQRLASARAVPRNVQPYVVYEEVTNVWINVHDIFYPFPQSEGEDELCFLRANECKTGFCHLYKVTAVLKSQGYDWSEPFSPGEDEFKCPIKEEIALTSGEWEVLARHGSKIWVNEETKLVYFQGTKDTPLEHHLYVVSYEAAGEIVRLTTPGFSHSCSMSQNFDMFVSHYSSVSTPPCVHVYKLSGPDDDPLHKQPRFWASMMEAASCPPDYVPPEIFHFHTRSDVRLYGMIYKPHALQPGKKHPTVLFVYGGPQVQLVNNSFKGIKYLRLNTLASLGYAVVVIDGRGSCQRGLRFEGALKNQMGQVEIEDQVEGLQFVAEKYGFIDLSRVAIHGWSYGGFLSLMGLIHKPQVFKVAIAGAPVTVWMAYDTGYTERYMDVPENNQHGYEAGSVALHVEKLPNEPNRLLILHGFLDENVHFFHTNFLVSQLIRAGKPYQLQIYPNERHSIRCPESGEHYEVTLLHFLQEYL

Row | Ki (DP IV [1]) [µM] | Ki (DPII) [µM] | Selectivity DPII(IC50)/DPIV(Ki) (DPII) | IC50 (DPII) [µM] | Transport (Caco-2 monolayer) | Papp A→B (Caco-2 transport assay) [×10⁻⁶ cm/s] | Papp B→A (Caco-2 transport assay) [×10⁻⁶ cm/s] | IC50 (DP IV [4]) [µM] | IC50 [5] [µM] | Ki (DP9) [µM] | IC50 (DP9) [µM] | Selectivity DP9(IC50)/DPIV(Ki) (DP9) | solubility [6] | SMILES | LD50 Viability SY5Y [2] [mM] | LD50 cytotox SY5Y [2] [mM] | LD50 Viability HEP-G2 [3] [mM] | LD50 cytotox HEP-G2 [3] [mM] | Cytotox 100 μM (%) HEPG2 [3] [%] | Viability 100 μM (%) HEP-G2 [3] [%] | Observed cytotox [3] [% spheric]
1 | 0.0195 | 2.18 | 383 | 7.46 | good, active in | 41.9 | 16 | 1 | 0.139 | 7.65 | 38.3 | 1,964 |  | NCc1c(-c2ccc(Cl)cc2Cl)ncn1Cc1ccccc1Cl [Example 81b, C-[3-(2-chloro-benzyl)-5-(2,4-dichloro-phenyl)-3H-imidazol-4-yl]-methylamine] | 0.07 | 0.16 | 0.14 | 0.12 |  |  | 
2 | 0.0158 |  | 1,177 | 18.6 | good, passive | 51.2 | 52.8 | 1.9 | 0.261 |  | 59.7 | 3,778 |  | COc1ccccc1Cn1cnc(-c2ccc(Cl)cc2Cl)c1CN [Example 120b, C-[5-(2,4-dichloro-phenyl)-3-(2-methoxy-benzyl)-3H-imidazol-4-yl]-methylamine] | 0.10 | 0.16 | 0.21 | 0.17 | 11.6 | 108.9 | 50
3 | 0.00633 | 1.57 | 540 | 3.42 | good, active in | 45.1 | 15 |  | 0.054 |  | 34.3 | 5,419 | low solubility | CCOc1ccccc1Cn1cnc(-c2ccc(Cl)cc2Cl)c1CN [Example 128b, (1-(2-ethoxybenzyl)-4-(2,4-dichlorophenyl)-1H-imidazol-5-yl)methanamine] | 0.07 | 0.15 | 0.15 | 0.14 |  |  | 

Row | SMILES | Ki (DP IV [1]) [µM] | Ki (DPII) [µM] | Selectivity DPII(IC50)/DPIV(Ki) (DPII) | IC50 (DPII) [µM] | Transport (Caco-2 monolayer) | Papp A→B (Caco-2 transport assay) [×10⁻⁶ cm/s] | Papp B→A (Caco-2 transport assay) [×10⁻⁶ cm/s] | IC50 (DP IV [4]) [µM] | IC50 [5] [µM] | Ki (DP9) [µM] | IC50 (DP9) [µM] | Selectivity DP9(IC50)/DPIV(Ki) (DP9) | solubility [6] | LD50 Viability SY5Y [2] [mM] | LD50 cytotox SY5Y [2] [mM] | LD50 Viability HEP-G2 [3] [mM] | LD50 cytotox HEP-G2 [3] [mM] | Cytotox 100 μM (%) HEPG2 [3] [%] | Viability 100 μM (%) HEP-G2 [3] [%] | Observed cytotox [3] [% spheric]
4 | COc1cccc(Cn2cnc(-c3ccc(Cl)cc3Cl)c2CN)c1 [Example 59b, C-[5-(2,4-dichloro-phenyl)-3-(3-methoxy-benzyl)-3H-imidazol-4-yl]-methylamine] | 0.0153 |  | 2,542 | 38.9 | good, passive | 49.7 | 38.3 | 3.7 | 0.221 |  |  | 7,974 |  |  |  |  |  | 1.2 | 116.3 | 10
